This is an account of results in patent publication US20130184310A1, “TREATMENT OF LUPUS ARTHRITIS USING LAQUINIMOD” (Teva Pharmaceutical Industries, Ltd., priority 2010, published 2013).

Molecules are shown by their SMILES.

Data set [1] concerns MRL/lpr lupus mouse model. The experiment in a line: Non-GLP in vivo evaluation of laquinimod in the MRL/lpr lupus mouse model (Example 1.4). To be noted: for kidney glomerulonephritis (histopathology) / salivary gland inflammation (histopathological scoring): laquinimod 5 mg/kg p.o., MMF 100 mg/kg p.o., compared to vehicle. As for the experimental part: This study evaluates the efficacy of laquinimod in the MRL/lpr lupus mouse model.
Animals were monitored until their urine proteinuria reached >200 mg/dL at which time they were enrolled in the study. Animals were dosed with either 1 or 5 mg/kg of laquinimod, p.o., 100 mg/kg mycophenolate mofetil (MMF, CellCept®) p.o., or vehicle (water DDW), p.o., daily except weekends.
Proteinuria, ankle and paw diameters, dsDNA autoantibody levels and survival were monitored during in life portion of the study. At termination, blood samples were harvested for determination of dsDNA autoantibody levels, spleens were harvested and weighed then processed to isolate splenocytes which were counted. Kidney, lung, skin, lymph node, salivary gland and joints were harvested, processed for histological examination and scored by a histopathologist blind to the treatments.

Data set [2] deals with (NZBxNZW)F1 mice. As to the kind of experiment: Survival dose response study of laquinimod in the (NZBxNZW)F1 model for SLE, 37 weeks (Example 1.2). The class given is in vivo, mouse. How it is done:
This was a survival dose response study to determine whether laquinimod is effective in suppressing the symptoms in (NZBxNZW)F1 mice. The positive control used was Cytoxan.
Seventy-one mice having spontaneous disease developed by the age of 7 months (as measured by proteinuria) were divided into 6 experimental groups (Water, CTX, Laquinimod 0.2 mg/kg, Laquinimod 1.0 mg/kg, Laquinimod 5.0 mg/kg, Laquinimod 25.0 mg/kg) according to their PU scores.
Water and Laquinimod were administered orally (200 μl/mouse) 5 days a week. CTX was administered intraperitonealy once weekly, (200 μl/mouse). Blood samples were collected on weeks 1, 5, 15 and 37. Serum samples were prepared for detection of anti-dsDNA antibodies. After 37 weeks (257 days) of treatment, mice were sacrificed.

In data set [3] the test system is (NZBxNZW)F1 mice. As to the kind of experiment: Confirmation of efficacy of laquinimod in the (NZBxNZW)F1 model for SLE, 13 weeks (Example 1.3). The class given is in vivo, mouse. How it is done:
This study examined the effect of laquinimod (0.2 and 5 mg/kg) versus CTX and vehicle treated (NZBxNZZW)F1 mice. Seventy mice having spontaneous disease developed by the age of 7 months (as measured by proteinuria) were divided into 4 experimental groups (Water, CTX, Laquinimod 0.2 mg/kg, Laquinimod 5.0 mg/kg,) according to their PU scores. Water and Laquinimod were administered orally (200 μl/mouse) 5 days a week. CTX was administered intraperitonealy once weekly, (200 μl/mouse). Blood samples were collected on weeks 1, 5, and 11. Serum samples were prepared for detection of anti-dsDNA antibodies. After 13 weeks of treatment, mice were sacrificed and immune complex deposits in their kidneys were evaluated.

Data set [4] deals with Systemic Lupus Erythematosus (SLE) patients with active lupus arthritis. As to the kind of experiment: Phase IIa randomized, double-blind, placebo-controlled clinical trial of laquinimod in lupus arthritis (Example 2). To be noted: daily oral 0.5 mg or 1 mg. The class given is in vivo, human. How it is done: A multicenter, randomized, double-blind, placebo controlled clinical trial is conducted to evaluate the safety, tolerability, biomarkers and clinical effect of laquinimod (0.5 mg/day and 1 mg/day) in Systemic Lupus Erythematosus (SLE) patients with active lupus arthritis.
Approximately 90 Systemic Lupus Erythematosus patients with active lupus arthritis are enrolled. (approximately 30 subjects per treatment arm). Drop-outs are not replaced.
The overall study duration is up to 20 weeks, with the screening period being up to 2 weeks, the treatment period being 12 weeks and the follow-up period being 4 weeks.
Capsules containing laquinimod 0.5 mg and/or matching placebo are administered orally once daily: • 1. Laquinimod 0.5 mg arm—1 capsule of laquinimod 0.5 mg and 1 matching placebo capsule. • 2. Laquinimod 1 mg arm—2 capsules of laquinimod 0.5 mg. • 3. Placebo arm—2 capsules of placebo.
This is a Phase IIa, randomized, double-blind, placebo-controlled, study to assess the safety, tolerability, pharmacokinetics, biomarkers and clinical effect of two doses of laquinimod in Systemic Lupus Erythematosus patients with active lupus arthritis. This study evaluates the safety, tolerability of two doses of laquinimod (0.5 mg and 1 mg/day) in Systemic Lupus Erythematosus patients with active lupus arthritis. This study also evaluates biomarkers and clinical effect of laquinimod (0.5 mg and 1 mg/day) in Systemic Lupus Erythematosus patients with active lupus arthritis.
Subjects are initially randomized in a 1:1 ratio into one of the following two treatment arms: • 1. Laquinimod 0.5 mg. • 2. Matching placebo.
Enrollment to the 1 mg laquinimod dose group is initiated following the approval of the study safety committee, based on data of at least 10 subjects who have completed at least 4 weeks of treatment. Upon approval, randomization into one of the following three treatment arms occurs in a ratio that allows for reaching an overall target enrollment of approximately 30 subjects per treatment arm. • 1. Laquinimod 0.5 mg. • 2. Laquinimod 1 mg. • 3. Matching placebo.
Scheduled in-clinic visits are conducted at screening, baseline and at weeks 2, 4, 8, 12 and 16.
Treatment with laquinimod/placebo is discontinued on visit week 12 and a follow-up/study completion visit is conducted at week 16. Subjects who early discontinued study drug prior to visit week 12 preferably attend a follow-up study completion visit within 4 weeks (28 days) of treatment termination visit.
During the study period the British Isles Lupus Assessment Group (BILAG) score, SLE Disease Activity Index (SLEDAI 2K), Swollen and Tender joint count, Patient Global Assessment score (PGA), Evaluator Global Assessment score (EGA) and Patient Pain assessment (PtP) are assessed in addition to routine safety laboratory and physical tests, PK analysis and disease related immunology tests/biomarkers.
Response Definitions • BILAG MSK response is defined as change from Musculoskeletal A or B at baseline to C or D at LOV. • BILAG Substantial Responder (SR) is defined as all systems at last observed value (LOV) are C or D/E providing at least one system is A or B at baseline. • SLEDAI 2K response—decrease in SLEDAI of at least 4 point compared to baseline • Medicinal/Interventional flare defined as any of the following • Steroid increase by at least 5 mg/day compared to previous dose or compared to baseline or any IV, IM or Intraarticular dose. • New continuous treatment (>3 days) or increase in dose of NSAIDs or COX2 inhibitors. • New treatment or dose increase with an immunosuppressive drug compared to previous dose or compared to baseline. • Treatment with biologic agents, IVIG or plasmapheresis. • New treatment or dose increase of antimalarial drugs compared to previous dose or compared to baseline.
Lupus Arthritis • 1. […]

Data set [5] relates to (NZBxNZW)F1 mouse model of SLE. Particulars: MTX 35 μg/mouse p.o. 3 times a week; for immune complex deposition (ICD) in kidney glomeruli: end of experiment (12 weeks) vs vehicle; for immune complex deposition (ICD) in kidney glomeruli / proteinuria (PU): laquinimod 25 mg/kg p.o. daily, CTX 25 mg/ig i.p. once weekly; for proteinuria (PU): week 12 observation vs vehicle (water).
Protocol: (NZBxNZW)F1 are lupus-prone mice that develop an SLE-like disease spontaneously including anti-dsDNA antibodies (Abs), proteinuria and Immune Complex Deposits (ICD).
In a number of studies, the effect of various doses of laquinimod in the (NZBxNZW)F1 model for SLE were assessed. The studies also included a negative control (water) and positive controls including cyclophosphamide (CTX) and methotrexate (MTX).
This study investigated the effect of laquinimod, an immunomodulator of SLE in a murine model of SLE and compared the treatment effect to reference substances CTX and MTX.
Laquinimod and reference compounds CTX and MTX were applied in therapeutic mode, starting the treatment at the time when the characteristic change of murine SLE model, proteinuria (PU) was present in >80% of animals, and the observation and treatment period following this was 12 weeks. Laquinimod was applied p.o. daily, in a dose of 25 mg/kg. CTX was applied once weekly in a dose of 25 mg/ig i.p. MTX was applied 3 times a week p.o. at 35 μg/mouse.
Also, body weight changes were recorded weekly and at the end of experiment both kidneys were preserved, one for possible conventional histology and one for immune complex detection *ICD) in glomeruli. Evaluation of ICD was performed by scoring and by image analysis.
80 animals were involved in the study.

Setting [6] is: laquinimod low dose 0.2 mg/kg orally 5 days a week.
[7] abbreviates: laquinimod 5 mg/kg p.o. compared to vehicle.
Setting [8] is: study period, compared to placebo.

Turning to `COc1c(C)c2c(c(O)c1C/C=C(\C)CCC(=O)OCCN1CCOCC1)C(=O)OC2` [MMF, mycophenolate mofetil, reference compound], the “lung BALT hyperplasia (histopathology)” value in data set [1] (MMF 100 mg/kg p.o. vs vehicle) is on record as “significant difference”. Also, in data set [1], the “kidney glomerulonephritis (histopathology)” value was “significant reductions” and the “salivary gland inflammation (histopathological scoring)” value is recorded as “significant reduction”.

In the case of `CCN(C(=O)c1c(O)c2c(Cl)cccc2n(C)c1=O)c1ccccc1` [laquinimod], the progression of proteinuria result in the data set with (NZBxNZW)F1 mice [2] (all doses of laquinimod (0.2, 1.0, 5.0, 25.0 mg/kg) orally 5 days a week, in comparison to vehicle) is on record as “abrogated the progression of proteinuria”. In the data set on (NZBxNZW)F1 mice [2] (all doses of laquinimod (0.2-25 mg/kg), 37 weeks of treatment), the survival entry is “significant prolongation of survival”. Further, the proteinuria entry in the data set on (NZBxNZW)F1 mice [2] (laquinimod dose of 0.2 mg/kg orally 5 days a week) is “abrogated proteinuria but not to the same extent as compared to the higher doses”. In the data set with (NZBxNZW)F1 mice [2] (laquinimod doses of 1, 5 and 25 mg/kg orally 5 days a week), the “proteinuria, compared with positive control CTX” value was “as effective as the positive control cyclophosphamide (CTX)”. For the same compound, the anti-dsDNA levels entry in the data set on (NZBxNZW)F1 mice [2] (serum, weeks 1, 5, 15 and 37, laquinimod 0.2-25 mg/kg) was “dose dependent reduction in antibody levels over time”. For the same compound, the anti-dsDNA levels entry with (NZBxNZW)F1 mice [3] (laquinimod 5 mg/kg orally 5 days a week) was “behaved similarly to the positive control CTX”. Also, the “immune complex deposits in kidneys” value in the data set on (NZBxNZW)F1 mice [3] (laquinimod 5 mg/kg orally 5 days a week, after 13 weeks) was “behaved similarly to the positive control CTX”. Further, in the data set on (NZBxNZW)F1 mice [3] (laquinimod 0.2 and 5 mg/kg orally 5 days a week, 13 weeks), the “disease progression as measured by proteinuria” value is recorded as “abrogated disease progression”. In the data set with (NZBxNZW)F1 mice [3] (setting [6]), the “anti-dsDNA Ab titers” value is “did not inhibit” and the proteinuria entry was “prevented increased proteinuria”. In addition, in the data set with (NZBxNZW)F1 mice [3] (laquinimod low dose 0.2 mg/kg orally 5 days a week, after 13 weeks), the “ICD (immune complex deposits)” value is recorded as “did not inhibit”. Besides, the “bone resorption (joint histopathology)” value in data set [1] (both doses of laquinimod (1 and 5 mg/kg p.o.) compared to vehicle) was “Significant reductions”. In addition, the “salivary gland inflammation score, higher dose vs lower dose” value in data set [1] (laquinimod 5 mg/kg compared with 1 mg/kg) is “significantly lower score”. In data set [1] (setting [7]), the “cartilage damage (joint histopathology)” value is on record as “significant reduction”, the “joint inflammation (histopathology)” value is “significantly reduced” and the “splenocytes as percent of total spleen cells” value is listed as “significant reduction”. In data set [1], the “kidney glomerulonephritis (histopathology)” value was “significant reductions” and the “salivary gland inflammation (histopathological scoring)” value is on record as “significant reduction”. Moreover, the “measures during the in life phase (proteinuria, ankle and paw diameters, dsDNA autoantibody levels, survival)” value in data set [1] (laquinimod 1 or 5 mg/kg p.o., trends not significant except for some sporadic time points) was “trend toward dose dependent efficacy”. Besides, in data set [4] (compared to placebo), the tolerability result is listed as “well tolerated” and the toxicity entry is on record as “no toxicity”. In addition, in data set [4] (study period), the “66 swollen/68 tender joint count (JC66/68)” value is on record as “reduces”, the “C-Reactive Protein level” value is “lowers”, the “Disease Activity Score using 28 joint counts (DAS28)” value is given as “reduces” and the anti-dsDNA level entry was “lowers”. In addition, in data set [4] (study period), the “physician global assessment (PGA) score” value is listed as “reduces”, the serum chemokine level result is listed as “lowers” and the serum cytokine level entry is “lowers”. In data set [4] (setting [8]), the “BILAG MSK response” value is recorded as “improves”, the BILAG score entry is given as “improves”, the swollen joint count result is on record as “reduces” and the tender joint count entry was “reduces”. Moreover, in data set [5], the “immune complex deposition (ICD) in kidney glomeruli” value (“immune complex deposition (ICD)” for short) is reported as “significantly inhibited” and the “proteinuria (PU)” value is given as “significantly diminished the proteinuria”.

For `CN(Cc1cnc2nc(N)nc(N)c2n1)c1ccc(C(=O)N[C@@H](CCC(=O)O)C(=O)O)cc1` [MTX, methotrexate], the “animals died during the treatment period” value in data set [5] (12 week treatment period, 80 animals in study) was 2. Moreover, in data set [5], the “immune complex deposition (ICD)” value is listed as “failed to inhibit the symptoms” and the “proteinuria (PU)” value is reported as “failed to inhibit the symptoms”.

Consider `O=P1(N(CCCl)CCCl)NCCCO1` (stereo not drawn) [CTX, cyclophosphamide], for which, in data set [5], the “immune complex deposition (ICD)” value was “significantly inhibited” and the “proteinuria (PU)” value is recorded as “significantly diminished the proteinuria”.
